The source of these data is patent US20260153494A1 (AGRICUL TURAL UNIVERSITY OF ATHENS, priority 2023, published 2026).

The subject of data set [1] is Immobilized FGGsh155:CB[8] hexamer (GSTF mutant sh155, FGG-tagged, SEQ ID NO: 2, with cucurbit[8]uril 1:1, on glutaraldehyde-crosslinked chitosan). Put plainly: Butachlor inhibition (IC50) of immobilized FGGsh155:CB[8]. It counts as biochemical. The settings on record: immobilized on chitosan carrier vs free enzyme. Here is the method:
FIG. 21 (A-B): Dose-response inhibition curves of FGGsh155:CB[8] due to the herbicide butachlor for the determination of IC50 value. FIG. 21A. before and FIG. 21B. after immobilization. The data represent the mean±SD (N=3).
(§1) The half maximal inhibitory concentration (IC50), namely the inhibitor concentration that leads to 50% inhibition of the enzyme activity of FGGsh155:CB[8], was determined for constant substrate concentrations and varying butachlor concentrations. The utilised substrate concentrations were equal to the kinetic constant value of S0.5 for CDNB and 2.5 times the CDNB concentration for GSH. The correlation between the butachlor concentration from 0 to 600 nM (0 to 0.6 μM) and the remaining activity (%) of the immobilized enzyme was linear, thus standard curves for known herbicide concentrations were developed. The methodology was tested for drinking water samples derived from the Athens water supply network, as well as commercial mineral water (see Example 11). The results were analysed with the Graphpad Prism software.

The test system of data set [2] is sh155 dimer (phi class glutathione S-transferase GSTF mutant derived by DNA shuffling, SEQ ID NO: 2). Put plainly: Kinetic inhibition analysis with butachlor, dimer sh155. It is filed as biochemical. The settings on record: constant GSH, variable CDNB. An excerpt: (§2) FIG. 22 (A-J): Kinetic inhibition analysis of the dimer enzyme sh155 (FIG. 22A, 22C, 22E, 22G, 22I) and the hexamer FGGsh155:CB[8] (FIGS. 22B, 22D, 22F, 22H, 22J). A. & B. Lineweaver-Burk plots for the inhibition of the enzymes by different concentrations of butachlor, at constant concentration of GSH and variable concentration of CDNB. C. & D. Secondary (derivative) graph. The slope values were derived from the Lineweaver-Burk graphs (A) & (B). The intersection point with the x axis corresponds to Ki. E. & F. Secondary (derivative) graph where the data are derived from the Lineweaver-Burk graphs (A) & (B). The intersection point with the x axis corresponds to K. G. & H. Lineweaver-Burk plots for the inhibition of the enzymes by different concentrations of butachlor, at constant concentration of CDNB and variable concentration of GSH. […]. Secondary (derivative) graph. The slope values were derived from the Lineweaver-Burk graphs […], and the intersection point with the x axis corresponds to Ki.
(§3) Kinetic analysis in presence of butachlor aimed to characterize of the type of inhibition, thus the binding site of the inhibitor, as well as to identify possible differences in kinetic behavior between the GST dimer form (sh155) and the hexamer FGGsh155:CB[8] that was used in the immobilization. […]

Data set [3] deals with FGGsh155:CB[8] hexamer (FGG-tagged phi class glutathione S-transferase GSTF mutant sh155, SEQ ID NO: 2, with cucurbit[8]uril 1:1). Put plainly: Kinetic inhibition analysis with butachlor, hexamer FGGsh155:CB[8]. It counts as biochemical. The settings on record: constant GSH, variable CDNB.
From the text: as §2, §3

Data set [8] concerns the target FGGsh155:CB[8] (Triticum aestivum, UniProt Z9G7Y6U750). Put plainly: Inhibition of free FGGsh155:CB[8] by butachlor (IC50, kinetic inhibition analysis). It counts as biochemical. Here is the method:
as §1, with “The correlation between the butachlor concentration from 0 to 600 nM (0 to 0.6 μM) and the remaining activity (%) of the immobilized enzyme was linear, thus standard curves for known herbicide concentrations were developed.” left out
(§4) Kinetic analysis in presence of butachlor aimed to characterize of the type of inhibition, thus the binding site of the inhibitor, as well as to identify possible differences in kinetic behavior between the GST dimer form (sh155) and the hexamer FGGsh155:CB[8] that was used in the immobilization. […] In the mixed inhibition pattern all of the kinetic constants (Km, kcat) change, and the inhibitor is able to bind to both the free enzyme (Ki) and the enzyme-substrate complex (Ki′) with different affinities. […] This type of inhibition is a sub-case of the mixed inhibition pattern where Ki=Ki′, i.e. the velocity of the reaction is decreased without affecting the affinity with the substrate. In this inhibition type, the inhibitor and the substrate bind independently at different enzyme sites.

Data set [4] addresses T1, immobilized FGGsh155:CB[8] (Triticum aestivum, UniProt Z9G7Y6U750). Put plainly: Inhibition of immobilized FGGsh155:CB[8] by butachlor (IC50). It counts as biochemical. To be noted: after immobilization on the chitosan carrier. The method, then: as §1
For another data set, the target named is sh155 (Triticum aestivum, UniProt Z9G7Y6U750). Put plainly: Kinetic inhibition analysis of dimer sh155 by butachlor. It is filed as biochemical.
From the text: as §4

Data set [5] concerns the target T1, immobilized FGGsh155:CB[8]. Put plainly: Determination of butachlor in spiked water samples with the immobilized enzyme biosensor. The method, then: as §1
The basis for the detection of the herbicide butachlor in water samples was the determination of inhibition induced in the immobilized enzyme form. […] The linear response of inhibition of the immobilized enzyme due to butachlor was described by the equation y=−101.3x+98.07, R^2=0.991 (FIG. 23A). This observation led to the development of a methodology for determination of butachlor in drinking water samples based on the detection of inhibition as determined by a standard reference curve. Accordingly, standard curves were generated for spiked, with known concentrations of butachlor, samples of drinking water from the Athens' supply network (y=−81.84x+98.81, R^2=0.997) and bottled mineral water (y=−72.69x+99.46, R^2=0.995) (FIG. 23B). The detection range of butachlor with this methodology was determined up to 180 μg/L (600 nM) in water samples, with the acceptable amount of a pesticide in surface water at 1.0 μg/L and in drinking water at 0.1 μg/L (Council Directive 98/83/EC). The detection range up to 0.6 μM (180 μg/L) of the developed biosensor, with detection limit at approximately 31 μg/L for butachlor, achieves comparatively high sensitivity and selectivity.
The methodology was evaluated with recovery experiments of spiked drinking water samples, with known but random concentrations of butachlor within the range of the standard curve. […] The correlation between the added and found butachlor tested concentrations for network supply water (R^2 0.9993, p<0.0001) and mineral water (R^2 0.9987, p<0.0001) is depicted in FIG. 23C & 23D.

The conditions of data set [6]: buffer; cited from earlier work.
In the next data set the test system is human lymphocytes. To be noted: cited from earlier work.
Setting [7] is: towards CDNB (variable CDNB, constant GSH), binding to free enzyme.
The mark [8] stands for this setting: towards CDNB, binding to enzyme-substrate complex.
Where [9] appears, read: towards GSH (variable GSH, constant CDNB).

Several values for one entry are separate records, joined by “and”; a condition that tells them apart may be missing. Equal entries are not always repeated.

With `CCCCOCN(C(=O)CCl)c1c(CC)cccc1CC` [Butachlor, 2-chloro-2,6-diethyl-N-butoxymethyl-acetanilide], the “increase in sensitivity for butachlor after immobilization (IC50 immobilized vs free enzyme)” value in [1] is on record as “ten-fold increase in sensitivity”. Also, the “type of inhibition towards CDNB” value in [2] and in data set [3] was “mixed type inhibition with Ki<Ki′” throughout.
What is called IC50 is the midpoint of a concentration-inhibition curve. A lower IC50 goes with greater potency. The Ki is a dissociation constant, usually derived from enzyme kinetics or from competition with a known ligand. Low readings indicate a stronger hold on the target, high ones a looser hold on the target. As for `CCCCOCN(C(=O)CCl)c1c(CC)cccc1CC` [butachlor, 2-chloro-2,6-diethyl-N-butoxymethyl-acetanilide], the “type of inhibition towards GSH” value at FGGsh155:CB[8] and on sh155 was “non-competitive inhibition” each time. Further, the “type of inhibition towards the CDNB substrate” value on FGGsh155:CB[8] and on sh155 was “mixed type inhibition” each time. Further, the IC50 against FGGsh155:CB[8] (free enzyme, before immobilization) amounted to 5.14 ± 0.16 µM; in data set [4] it was 0.56 ± 0.02 µM. Also, the Ki was determined as 4.42 µM at FGGsh155:CB[8] (setting [7]); 21.1 µM on FGGsh155:CB[8] (setting [8]); 13.2 µM on FGGsh155:CB[8] (setting [9]); 5.92 µM on sh155 (setting [7]); 22.6 µM at sh155 (setting [8]); 13.3 µM at sh155 (setting [9]). Moreover, the Found butachlor in [5] (Athens water supply network, added 0.05 μM) is 0.046 ± 0.003 µM; in [5] (Athens water supply network, added 0.2 μM) it was 0.191 ± 0.001 µM; in [5] (Athens water supply network, added 0.3 μM), 0.308 ± 0.008 µM; in data set [5] (Athens water supply network, added 0.4 μM), 0.416 ± 0.005 µM; in [5] (Athens water supply network, added 0.6 μM), 0.617 ± 0.003 µM; in data set [5] (Bottled mineral water, added 0.1 μM) it was 0.095 ± 0.005 µM. For the same compound, the Found butachlor in data set [5] (Bottled mineral water, added 0.2 μM) was determined as 0.215 ± 0.005 µM; in [5] (Bottled mineral water, added 0.3 μM), 0.307 ± 0.005 µM; in data set [5] (Bottled mineral water, added 0.4 μM), 0.413 ± 0.012 µM; in data set [5] (Bottled mineral water, added 0.55 μM), 0.56 ± 0.010 µM. Moreover, the detection limit result in data set [5] (developed biosensor) was “approximately 31 μg/L”. The detection range result in data set [5] (water samples) was “up to 180 μg/L and ≤ 600 nM”. Moreover, the half-life result in [6] is on record as “up to 2.5 days”. Moreover, in the data set on human lymphocytes, the “frequency of chromosomal abnormalities” value was “dose-dependent increase in the frequency of chromosomal abnormalities”.
